One assay concerns crabgrass. The assay is described as follows: Example 1: pot test, foliar treatment, visually observed growth inhibition of crabgrass. The settings on record: Digitaria sanguinalis, foliar, read-out: Growth inhibition rate (%) of crabgrass, Measured value. The assay is classed as in vivo.
The next assay relates to velvetleaf. As to the kind of experiment: Example 1: pot test, foliar treatment, visually observed growth inhibition of velvetleaf. The settings on record: Abutilon theophrasti, foliar, foliar, read-out: Growth inhibition rate (%) of velvetleaf, Measured value. It counts as in vivo, Abutilon theophrasti MEDIC.
The next assay has as its system various plants. As to the kind of experiment: Example 1: pot test, foliar treatment, visually observed growth inhibition of other sown plants (Tables 5-1 to 5-137). To be noted: foliar. It counts as in vivo. The text has this: When the herbicidal activity in a case where two active ingredients are combined, is larger than the simple sum of the respective herbicidal activities of the two active ingredients (the expected activity), it is called a synergistic effect. The activity expected by the combination of two active ingredients can be calculated as follows (Colby S. R., “Weed”, vol. 15, p. 20-22, 1967). E=α+β−(α×β+100) where
α: growth inhibition rate when treated with x (g/ha) of herbicide X,
β: growth inhibition rate when treated with y (g/ha) of herbicide Y,
E: growth inhibition rate expected when treated with x (g/ha) of herbicide X and y (g/ha) of herbicide Y.
That is, when the actual growth inhibition rate (measured value) is larger than the growth inhibition rate by the above calculation (calculated value), the activity by the combination can be regarded as showing a synergistic effect.
Upland field soil was put into a 1/1,000,000 hectare pot, and seeds of various plants were sown. When the respective plants reached predetermined leaf stage, herbicidal compositions in predetermined amounts were diluted with water in an amount corresponding to 300 L/ha and applied for foliar treatment by a small sprayer.
On the 14th to 28th day after application, the state of growth of the respective plants was visually observed to determine the growth inhibition rate (measured value) in accordance with the following evaluation standard. Further, in accordance with the above Colby's formula, the growth inhibition rate (calculated value) was calculated. In Tables, with respect to the compound A, Compound Nos. in Table 1 or 3 are described, and with respect to other herbicidal compounds, common names are described.

The mark [1] stands for this setting: 3.2 to 4.1 leaf stage, 21st day after application.
[2] abbreviates: 4.0 to 4.4 leaf stage, 22nd day after application.

In patent US8466088B2, “Herbicidal compositions containing benzoylpyrazole compounds” (Ishihara Sangyo Kaisha, Ltd., priority 2007, dated 2013) one finds inhibition data, which are given here for two compounds.

Usually inhibition stands for how much of the control response was suppressed.

Like-named read-outs stand apart in the source and are kept apart here.

As to `CCNc1nc(Cl)nc(NC(C)C)n1` [Atrazine, atrazine, reference compound], the inhibition at 175 g/ha in the assay with crabgrass (2.7 to 3.6 leaf stage, 21st day after application, 175 g/ha) turned out to be 0%; in the assay on velvetleaf (setting [1]), 3%; with velvetleaf (setting [2]) it was 20%. For the same compound, the inhibition at 375 g/ha in the assay with crabgrass (2.7 to 3.6 leaf stage, 21st day after application) is 20%; with crabgrass (3.1 to 4.0 leaf stage, 22nd day after application) it was 0%; with velvetleaf (setting [1]) it was 5%; in the assay with velvetleaf (setting [2]), 25%. The inhibition at 125 g/ha in the assay on crabgrass (3.2 to 4.3 leaf stage, on the 22nd day after application, active ingredient amount 125 g/ha) stood at 0%; with crabgrass (4.0 to 4.5 leaf stage, 21st day after application, 125 g/ha), 10%; in the assay with crabgrass (4.3 to 4.5 leaf stage, 20th day after application, 125 g/ha), 0%; in the assay with velvetleaf (2.4 to 3.2 leaf stage, on the 22nd day after application, active ingredient amount 125 g/ha), 10%; in the assay on velvetleaf (3.0 to 3.5 leaf stage, 20th day after application, 125 g/ha), 0%; in the assay with velvetleaf (3.0 to 3.5 leaf stage, 21st day after application, 125 g/ha), 10%. Also, the inhibition at 250 g/ha in the assay on crabgrass (3.2 to 4.3 leaf stage, on the 22nd day after application, active ingredient amount 250 g/ha) worked out at 0%; in the assay on crabgrass (4.0 to 4.5 leaf stage, 21st day after application, 250 g/ha), 10%; with crabgrass (4.3 to 4.5 leaf stage, 20th day after application, 250 g/ha) it was 0%; with velvetleaf (3.0 to 3.5 leaf stage, 21st day after application, 250 g/ha), 20%. The inhibition at 150 g/ha was found to be 0% with crabgrass (3.8 to 4.4 leaf stage, 21st day after application, 150 g/ha); 0% in the assay with velvetleaf (3.0 to 3.8 leaf stage, 15th day after application); 60% in the assay on velvetleaf (3.2 to 5.0 leaf stage, 21st day after application); 0% in the assay on velvetleaf (3.5 to 4.3 leaf stage, 21st day after application). In addition, the inhibition at 1000 g/ha with velvetleaf (2.8 to 3.6 leaf stage, 24th day after application, 1000 g/ha) turned out to be 15%. Besides, the inhibition at 1500 g/ha in the assay with velvetleaf (2.8 to 3.6 leaf stage, 24th day after application, 1500 g/ha) was determined as 15%. Besides, the inhibition at 2000 g/ha in the assay on velvetleaf (2.8 to 3.6 leaf stage, 24th day after application, 2000 g/ha) was 25%. Besides, in the assay on various plants (Ipomoea, ivyleaf morningglory 1.5 to 2.1 leaf stage, 23rd day after application, 31 g/ha, read-out: Growth inhibition rate (%) of ivyleaf morningglory, Measured value), the inhibition at 31 g/ha was determined as 0%. In addition, the inhibition at 90 g/ha in the assay with various plants (Ipomoea, ivyleaf morningglory 1.5 to 2.1 leaf stage, 23rd day after application, 90 g/ha, read-out: Growth inhibition rate (%) of ivyleaf morningglory, Measured value) is 0%. The inhibition at 180 g/ha in the assay with various plants (Ipomoea, ivyleaf morningglory 1.5 to 2.1 leaf stage, 23rd day after application, 180 g/ha, read-out: Growth inhibition rate (%) of ivyleaf morningglory, Measured value) was 0%. Further, the inhibition at 500 g/ha in the assay on various plants (Ipomoea, ivyleaf morningglory 1.5 to 2.1 leaf stage, 23rd day after application, 500 g/ha, read-out: Growth inhibition rate (%) of ivyleaf morningglory, Measured value) is 83%.

Consider `COc1cc(OC)nc(NC(=O)NS(=O)(=O)c2ncccc2C(=O)N(C)C)n1` [Nicosulfuron], for which the inhibition at 30 g/ha came to 92% in the assay on crabgrass (3.5 to 4.2 leaf stage, 20th day after application, 30 g/ha); 20% in the assay with velvetleaf (2.5 to 3.3 leaf stage, 21st day after application, 30 g/ha); 10% with various plants (prickly sida 2.1 to 3.1 leaf stage, 20th day after application, 30 g/ha, read-out: Growth inhibition rate (%) of prickly sida, Measured value). Moreover, the inhibition at 15 g/ha in the assay on crabgrass (3.8 to 4.4 leaf stage, 21st day after application) worked out at 45%; in the assay with crabgrass (3.8 to 5.2 leaf stage, 21st day after application), 40%; with crabgrass (4.3 to 4.5 leaf stage, 20th day after application) it was 88%; with velvetleaf (3.0 to 3.5 leaf stage, 21st day after application), 45%; with velvetleaf (3.0 to 3.8 leaf stage, 28th day after application), 10%. For the same compound, the inhibition at 10 g/ha in the assay with velvetleaf (2.5 to 3.3 leaf stage, 21st day after application, 10 g/ha) amounted to 10%. Also, the inhibition at 20 g/ha in the assay with velvetleaf (2.5 to 3.3 leaf stage, 21st day after application, 20 g/ha) is 20%; in the assay on various plants (prickly sida 2.1 to 3.1 leaf stage, 20th day after application, 20 g/ha, read-out: Growth inhibition rate (%) of prickly sida, Measured value), 0%. Further, in the assay on velvetleaf (2.8 to 3.6 leaf stage, 24th day after application, 80 g/ha), the inhibition at 80 g/ha turned out to be 60%. Also, in the assay with velvetleaf (3.3 to 4.3 leaf stage, 20th day after application, 50 g/ha), the inhibition at 50 g/ha worked out at 50%. The inhibition at 7 g/ha with various plants (prickly sida 2.1 to 3.1 leaf stage, 20th day after application, 7 g/ha, read-out: Growth inhibition rate (%) of prickly sida, Measured value) was 0%. For the same compound, the inhibition at 60 g/ha in the assay with various plants (prickly sida 2.1 to 3.1 leaf stage, 20th day after application, 60 g/ha, read-out: Growth inhibition rate (%) of prickly sida, Measured value) was 55%.
